Structures can show the parent of a compound that is named as a salt.
Assays:
Type in all cases: physicochemical
[1] = Compatibility (water value method); conditions: 2.5 g plasticizer and 25 g acetone titrated with deionized water until turbidity; Table 5
Description: (§1) The aconitates and tributyl citrate prepared in the above examples and comparative examples were added as plasticizers to PVC resin to obtain PVC plastics. The PVC plastics include 100 parts of PVC resin, 35 parts of plasticizer, 2 parts of oxidized polyethylene wax, and 5 parts of octyltin maleate. The above raw materials were mixed and prepared using the same mixing process to obtain finished PVC products. The performance tests were performed on different plasticizers and the obtained PVC finished products in the above examples and comparative examples. […] Three points were selected for each group of samples, each point was tested once, and a median value was taken. • 2. […] Compatibility: tests were performed using a water value method. Since water molecules are polar, the compatibility between the plasticizer and water can characterize the compatibility between the plasticizer and polar materials (PVC, PLA, and nitrile rubber). When a certain plasticizer has good compatibility with water, it has good compatibility with PVC, and vice versa. In the experiment, 2.5 g of plasticizer and 25 g of acetone were added to a beaker, titrated with a burette filled with deionized water, and agitated while titrating until turbidity appears, and the volume of deionized water consumed was recorded. • 4. Glass transition temperature (Tg): the glass transition temperature was tested using a dynamic mechanical analyzer. Test conditions: nitrogen was taken as the carrier gas, at a test temperature range of -40 to 80°C, a heating rate of 3°C/min, and a frequency of 1 Hz.

[2] = Hardness (Shore hardness tester, GB/T 531-2008); conditions: PVC plastic: 100 parts PVC resin, 35 parts plasticizer, 2 parts oxidized polyethylene wax, 5 parts octyltin maleate
Description: as §1, with “The PVC plastics include 100 parts of PVC resin, 35 parts of plasticizer, 2 parts of oxidized polyethylene wax, and 5 parts of octyltin maleate.” left out

[3] = Water content (Karl Fischer moisture meter); conditions: aconitate/citrate products, Table 4
Description: 6. Water content: a Karl Fischer moisture meter is used to test the water content (retained to two decimal places).

[4] = Residual amounts of fat-soluble and water-soluble pigments (HPLC); conditions: aconitate/citrate products, Table 4
Description: 7. Residual amounts of fat-soluble pigments and water-soluble pigments: • a high-performance liquid chromatograph (HPLC) was used, and the instrument sensitivity and stability of the detector should comply with the provisions of GB/T 16631-2008. Chromatographic column: C18 column; injector: 10 µL micro-syringe; solvent: acetonitrile (HPLC grade); acquisition time: 15 min; mobile phase: 80% acetonitrile (HPLC grade) and 20% deionized water; injection volume: 1 µL; wavelength: 230 nm.
Test: the instrument was adjusted according to the above provisions. After the baseline was stable, 0.2 µL of the sample was injected using a micro-syringe, and the integrator or chromatographic workstation was started at the same time. A pigment concentration-integral area standard curve was established by testing the integral areas of pigments with different concentrations. When the pigment content was measured, the corresponding pigment integral area was automatically given by the instrument, and the pigment concentration was obtained by comparing with the standard curve. The ratio of the pigment concentration to the sample concentration is the pigment content.

[5] = Acid value (KOH titration); conditions: aconitate/citrate products, Table 4
Description: The aconitates and citrates prepared in the above examples and comparative examples were tested for acid value, purity, chromaticity, yield, triester conversion rate, and water content. […] The mixture was neutralized with 0.02 mol·L^-1 potassium hydroxide aqueous solution until a faint pink color appears, and the consumed volume Vo was recorded. 1 g of the sample (accurate to 0.01 g) was weighed using a ground-neck conical flask, then one portion of the above neutralized solution was added. After the sample was completely dissolved, the sample was titrated with 0.02 mol·L^-1 potassium hydroxide-ethanol standard titration solution (the titration should be completed within 30 seconds) until a faint pink color appeared and persisted for 5 seconds without fading, which was considered as an end point. The consumed volume V was recorded. […] Chromatographic column: C18 column; injector: 10 µL micro-syringe; solvent: acetonitrile (HPLC grade); acquisition time: 15 min; mobile phase: 80% acetonitrile (HPLC grade) and 20% deionized water; injection volume: 1 µL; wavelength: 230 nm.

[6] = Glass transition temperature (dynamic mechanical analyzer); conditions: PVC plastic with 35 parts plasticizer; -40 to 80°C, 3°C/min, 1 Hz
Description: as §1

[7] = Chromaticity (platinum-cobalt colorimetry); conditions: aconitate/citrate products, Table 4; colour comparison at 25°C
Description: 3. Chromaticity: preparation of 500# platinum-cobalt colorimetric standard stock solution: 1.2450 g of potassium chloroplatinate and 1.0000 g of cobalt chloride were weighed, with an accuracy of 0.0002 g, the mixture was dissolved in 100 mL of hydrochloric acid, and then diluted to 1000 mL with distilled water. This solution is just the 500# colorimetric standard comparison solution.
Preparation of colorimetric standards below 500#: different amounts of the 500# stock solution was prepared, and diluted with distilled water to the volume of a colorimetric tube to prepare colorimetric standard solutions of any number. The calculation formula is as follows: V = (N×V1)/500 [formula]
In the formula, V is the volume of the 500# standard stock solution taken to prepare the N# colorimetric standard solution, in mL; V1 is the volume of the colorimetric tube used, in mL; and N is the number of the colorimetric standard solution to be prepared.
Color comparison determination was performed at 25°C.

[8] = Tensile properties (GB/T 1040-2006): tensile modulus at 100%, elongation at break, elastic modulus; conditions: PVC plastic with 35 parts plasticizer; 50 mm/min, 25°C
Description: as §1

SMILES | Compatibility [1] [mL] | Hardness/Shore D [2] [Shore D] | Water content [3] [%] | Residual amounts of fat-soluble pigments [4] [ppm] | Residual amounts of water-soluble pigments [4] [ppm] | Acid value [5] [KOH/g] | Tg [6] [°C] | Chromaticity [7] [Pt-Co] | Elastic modulus [8] [MPa] | Elongation at break [8] [%] | Tensile modulus at 100% [8] [MPa]
CCCCOC(=O)C=C(CC(=O)OCCCC)C(=O)OCCCC [Example 34, tributyl aconitate] | 16.1 | 41 | 0.03 | 428 | 864 | 0.05 | 27.7 | 50 | 77.9 | 258.1 | 14.7
CCOC(=O)C=C(CC(=O)OCC)C(=O)OCC [Example 21, triethyl aconitate] | 18.4 | 43 | 0.02 | 385 | 328 | 0.05 | 28.2 | 30 | 135.5 | 243.6 | 15.8
CCCCC(CC)COC(=O)C=C(CC(=O)OCC(CC)CCCC)C(=O)OCC(CC)CCCC (stereo not shown) [Example 20, tri(2-ethylhexyl) aconitate] | 10.7 | 54 | 0.05 | 634 | 610 | 0.05 | 42.5 | 30 | 301.6 | 181.6 | 19.7
CCCCOC(=O)C=C(CC(=O)OCCCC)C(=O)OCCCC [Example 28, tributyl aconitate] | 14.4 | 42 | 0.04 | 1658 | 408 | 0.05 | 28.6 | 40 | 88.5 | 248.6 | 15.2
CCCCOC(=O)C=C(CC(=O)OCCCC)C(=O)OCCCC [Example 30, tributyl aconitate] | 13.2 | 43 | 0.04 | 463 | 1501 | 0.05 | 28.9 | 65 | 134.8 | 241.7 | 15.8
CCCCOC(=O)C=C(CC(=O)OCCCC)C(=O)OCCCC [Example 27, tributyl aconitate] | 12.4 | 45 | 0.05 | 4650 | 415 | 0.05 | 28.5 | 200 | 166.7 | 230.3 | 17.3
CCCCOC(=O)C=C(CC(=O)OCCCC)C(=O)OCCCC [Comparative Example 2, tributyl aconitate, reference compound] | 12.5 | 45 | 0.05 | 2406 | 2248 | 0.05 | 28.4 | 120 | 187.3 | 231.4 | 17.4
CCCCOC(=O)C=C(CC(=O)OCCCC)C(=O)OCCCC [Example 23, tributyl aconitate] | 13.1 | 43 | 0.03 | 1356 | 842 | 0.05 | 28.4 | 60 | 128.7 | 239.4 | 15.6
CCCCOC(=O)CC(O)(CC(=O)OCCCC)C(=O)OCCCC [Comparative Example 5, tributyl citrate, reference compound] | 14.3 | 48 | 0.03 | 852 | 653 | 0.05 | 37.8 | 50 | 226.4 | 213.4 | 17.6
CCCCOC(=O)C=C(CC(=O)OCCCC)C(=O)OCCCC [Example 26, tributyl aconitate] | 12.2 | 45 | 0.04 | 2015 | 465 | 0.05 | 28.8 | 70 | 178.3 | 234.1 | 17.5
CCCCOC(=O)CC(O)(CC(=O)OCCCC)C(=O)OCCCC [Comparative Example 4, tributyl citrate, reference compound] | 13.9 | 51 | 0.04 | 3054 | 2156 | 0.05 | 39.7 | 150 | 274.8 | 201.3 | 18.1
